In one data set the test system is catalepsy in rats. In words: Cataleptogenic potential in rats (no haloperidol). It is filed as in vivo. To be noted: 0.003 to 3 mg/kg s.c., 60 min post dosing, similar at the other time points.
For data set [1], the system named is d-amphetamine induced hyperactivity in mice. Kind of data set: Antagonism of d-amphetamine-induced hyperlocomotion in mice. Particulars: d-amphetamine 2.5 mg/kg i.p. Type of data set: in vivo. Here is the method:
FIG. 3 is a schematic representation of the effect of (S)-2-(Benzylamino-methyl)-2,3,8,9-tetrahydro-7H-1,4-dioxino[2,3-e]indol-8-one (agent) to reverse d-amphetamine induced hyperactivity in mice. The data are expressed as a percentage of the activity level (horizontal activity counts) observed in mice treated with d-amphetamine alone for eight doses ranging from 0.0001 to 1 mg/kg s.c. of agent. The data are presented as means±SEM.
The ability to antagonize amphetamine-induced hyperlocomotion was tested according to a modified version of the methods of Riffee and Wilcox, Psychopharmacology, 1985, 85:97-101. Mice (25-30 g) were transported from the colony room to the experimental room and held there for the duration of the experiment. […] Control groups, assessed simultaneously with drug-treated groups, received vehicle at equal volumes (10 ml/kg). […] Activity was monitored for 30 minutes with lights on using Omnitech Digiscan® (Columbus, Ohio) infrared monitors. Each infrared beam break was counted by the automated system and totaled at 10 minute intervals. […]
FIG. 3 is a schematic representation of the effect of (S)-2(Benzylamino-methyl)-2,3,8,9-tetrahydro-7H-1,4-dioxino[2,3-e]indol-8-one (agent) to reverse d-amphetamine induced hyperactivity in mice. The data are expressed as a percentage of the activity level observed in mice treated with d-amphetamine alone and are presented as means±SEM.

Data set [2] relates to haloperidol-induced catalepsy in rats. Kind of data set: Reversal of haloperidol-induced catalepsy in rats. Particulars: haloperidol 3 mg/kg i.p. It is filed as in vivo, Sprague-Dawley rats. The protocol:
FIG. 1 is a schematic representation of the effect of (S)-2-(benzylaminomethyl)-2,3,8,9-tetrahydro-7H-1,4-dioxino[2,3-e]indol-8-one (agent) on haloperidol-induced catalepsy in rats at 60 minutes after drug treatment, the time point of greatest reversal as measured by seconds spent in catelepsy over a dose range of 0.003 to 3 mg/kg s.c. of agent. The data are means±SEM.
Tests for reversal of haloperidol-induced catalepsy in rats were conducted according to a variation of the methods of Svensson et al., Neuropharmacology, 1993, 32:1037-1045. Rats (200-250 g) were transported from the colony room to the experimental room and held there for the duration of the experiment. Haloperidol, dissolved in 0.25% Tween 80®, was administered to all animals at a dose of 3 mg/kg i.p. Sixty minutes later, (S)-2-(benzylamino-methyl)-2,3,8,9-tetrahydro-7H-1,4-dioxino[2,3-e]indol-8-one, also dissolved in 0.25% Tween 80®, was administered s.c. at 4 dose levels to 6 male Sprague-Dawley rats per dose level. A control group, assessed simultaneously with (S)-2-(benzylamino-methyl)-2,3,8,9-tetrahydro-7H-1,4-dioxino[2,3-e]indol-8-one treated groups, received a vehicle (VEH) injection of 0.25% Tween 80® at equal volumes (1 ml/kg). Animals were assessed for catalepsy at 30, 60, 90 and 120 minutes after drug administration by placing the animal's forepaws on a wooden cube (8×8×8 cm). The time that the animal remained with at least one of the forepaws on the cube was measured (maximum=60 sec). The righting reflex was then tested and used to discard sedated subjects. Data were analyzed using a two-factor analysis of variance with one repeated measure. A subsequent least significant difference from control test (p<0.05) was used to determine the minimal effective dose (MED) for reversing haloperidol-induced catalepsy and to determine time of onset. A trend test was then used to determine at which time points (if any) there was a dose-related effect. […]

The values below come from patent US6350773B1, “Therapeutic combinations of (S)-2-(benzylamino-methyl)-2,3,8,9,-tetrahydro 7H-1,4-dioxino{2,3-e}indol-8-one and neuroleptics for the treatment or prevention of psychotic disorders” (American Home Products Corporation, priority 1999, dated 2002).

By ED50 is commonly meant the dose at which the effect has come halfway, by size or by number of responders.

As to `O=C1Cc2c(ccc3c2O[C@@H](CNCc2ccccc2)CO3)N1` [(S)-2-(benzylamino-methyl)-2,3,8,9-tetrahydro-7H-1,4-dioxino[2,3-e]indol-8-one], the “ability to induce catalepsy” value in the data set on catalepsy in rats is “lack of ability of the agent to induce significant catalepsy”. The 50% effective dose (ED50) was found to be 0.002 mg/kg in data set [1] (Mus musculus, agent s.c., horizontal activity counts 10-20 min, read-out: ED50 (dose producing 50% reduction in activity), d-amphetamine-induced hyperactivity) and 0.08 mg/kg in data set [2] (Rattus norvegicus, 1 h, agent s.c., 60 minutes after drug treatment (time point of greatest reversal), read-out: ED50 (dose producing 50% reduction in maximal response), reversal of haloperidol-induced catalepsy). Also, the “d-amphetamine-induced hyperactivity (horizontal activity counts, % of d-amphetamine alone)” value in data set [1] (agent 0.0001 to 1 mg/kg s.c.) is reported as “dose-dependent decreased”. In addition, the “time spent in catalepsy position” value in data set [2] (agent 0.003 to 3 mg/kg s.c., 60 minutes after drug treatment) was “dose-dependent decrease”. Also, the “MED (minimal effective dose) for reversing haloperidol-induced catalepsy” value in data set [2] (agent s.c. 60 min later, 60 minutes after drug treatment) is given as 0.3 mg/kg.
